Toxic doses and inconclusive results are not listed. Cut-off read from the data, not from the text of the source: active = T/C of 150% or more; inactive = T/C below 125%.
System: L1210 leukemia ip in BDF1 mice, survival T/C
Assay: NCI In Vivo Anticancer Drug Screen. Data for tumor model L1210 Leukemia (intraperitoneal) in B6D2F1 (BDF1) mice
Settings: endpoint: mean survival time, higher = longer survival
In short: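 Tumor was transplanted into mice, which were then dosed with test compound or vehicle alone. Survival was recorded for each group, and the treated figure was expressed relative to the control figure.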

[1] = dose: 50.0 mg/kg/injection, schedule: Q01DX009 (ip), vehicle: saline
[2] = dose: 100.0 mg/kg/injection, schedule: Q01DX009 (ip), vehicle: saline
[3] = dose: 100.0 mg/kg/injection, schedule: Q04DX003 (ip), vehicle: Klucel (hydroxypropylcellulose) (HPC)
[4] = dose: 200.0 mg/kg/injection, schedule: Q04DX003 (ip), vehicle: Klucel (hydroxypropylcellulose) (HPC)
[5] = dose: 400.0 mg/kg/injection, schedule: Q04DX003 (ip), vehicle: Klucel (hydroxypropylcellulose) (HPC)
[6] = dose: 50.0 mg/kg/injection, schedule: Q01DX009 (ip), vehicle: Klucel (hydroxypropylcellulose) (HPC)
[7] = dose: 100.0 mg/kg/injection, schedule: Q01DX009 (ip), vehicle: Klucel (hydroxypropylcellulose) (HPC)
[8] = dose: 200.0 mg/kg/injection, schedule: Q01DX009 (ip), vehicle: Klucel (hydroxypropylcellulose) (HPC)
[9] = dose: 100.0 mg/kg/injection, schedule: Q04DX002 (ip), vehicle: Klucel (hydroxypropylcellulose) (HPC)
[10] = dose: 200.0 mg/kg/injection, schedule: Q04DX002 (ip), vehicle: Klucel (hydroxypropylcellulose) (HPC)
[11] = dose: 400.0 mg/kg/injection, schedule: Q04DX002 (ip), vehicle: Klucel (hydroxypropylcellulose) (HPC)
[12] = dose: 100.0 mg/kg/injection, schedule: Q01DX009 (ip), vehicle: saline with Tween-80
[13] = dose: 25.0 mg/kg/injection, schedule: Q01DX009 (ip), vehicle: Klucel (hydroxypropylcellulose) (HPC)
[14] = dose: 25.0 mg/kg/injection, schedule: Q04DX003 (ip), vehicle: Klucel (hydroxypropylcellulose) (HPC)
[15] = dose: 50.0 mg/kg/injection, schedule: Q04DX003 (ip), vehicle: Klucel (hydroxypropylcellulose) (HPC)
[16] = dose: 100.0 mg/kg/injection, schedule: Q01DX001 (ip), vehicle: carboxymethylcellulose (CMC)
[17] = dose: 200.0 mg/kg/injection, schedule: Q01DX001 (ip), vehicle: carboxymethylcellulose (CMC)
[18] = dose: 400.0 mg/kg/injection, schedule: Q01DX001 (ip), vehicle: carboxymethylcellulose (CMC)
[19] = dose: 100.0 mg/kg/injection, schedule: Q04DX003 (ip), vehicle: saline
[20] = dose: 200.0 mg/kg/injection, schedule: Q04DX003 (ip), vehicle: saline

Measured: T/C

CC(N)c1ccccc1 (stereo unspecified) (tested in a mixture with another compound)
inactive: [1] 87 % of control | [2] 90 % of control

CCCCP(=S)(CCCC)C1CCCC1
inactive: [3] 104 % of control | [4] 107 % of control | [5] 101 % of control

CCCCC1C(=O)N2c3ccccc3-c3ccccc3N2C1=O
inactive: dose: 75.0 mg/kg/injection, schedule: Q01DX001 (ip), vehicle: saline 99 % of control | dose: 150.0 mg/kg/injection, schedule: Q01DX001 (ip), vehicle: saline 96 % of control | dose: 300.0 mg/kg/injection, schedule: Q01DX001 (ip), vehicle: saline 101 % of control

S=P(Nc1ccccc1)(Nc1ccccc1)Nc1ccccc1
inactive: [6] 96 % of control | [7] 98 % of control | [8] 98 % of control

CC(=O)Oc1ccc2ccnc(/C=N\NC(N)=S)c2c1
inactive: [9] 106 % of control | [10] 98 % of control | [11] 117 % of control

ClCCC[S][Pb]([c]1ccccc1)([c]1ccccc1)[c]1ccccc1
inactive: dose: 25.0 mg/kg/injection, schedule: Q04DX002 (sc), vehicle: olive oil, sesame oil, peanut oil 100 % of control | dose: 50.0 mg/kg/injection, schedule: Q04DX002 (sc), vehicle: olive oil, sesame oil, peanut oil 116 % of control

O=Cc1nccn1Cc1ccccc1
inactive: dose: 25.0 mg/kg/injection, schedule: Q01DX009 (ip), vehicle: saline with Tween-80 93 % of control | dose: 50.0 mg/kg/injection, schedule: Q01DX009 (ip), vehicle: saline with Tween-80 98 % of control | [12] 100 % of control

O=C(O)c1ccncc1C(=O)c1csc2ccccc12
inactive: dose: 25.0 mg/kg/injection, schedule: Q01DX009 (ip), vehicle: saline 108 % of control | [1] 102 % of control | dose: 50.0 mg/kg/injection, schedule: Q04DX003 (ip), vehicle: acetone 99 % of control | [2] 94 % of control | dose: 100.0 mg/kg/injection, schedule: Q04DX003 (ip), vehicle: acetone 99 % of control

Cc1cc(Cl)ccc1NS(=O)(=O)c1ccc(Br)cc1
inactive: [12] 97 % of control | dose: 100.0 mg/kg/injection, schedule: Q04DX003 (ip), vehicle: saline with Tween-80 102 % of control | dose: 200.0 mg/kg/injection, schedule: Q01DX009 (ip), vehicle: saline with Tween-80 98 % of control | dose: 200.0 mg/kg/injection, schedule: Q04DX003 (ip), vehicle: saline with Tween-80 100 % of control | dose: 400.0 mg/kg/injection, schedule: Q01DX009 (ip), vehicle: saline with Tween-80 93 % of control | dose: 400.0 mg/kg/injection, schedule: Q04DX003 (ip), vehicle: saline with Tween-80 96 % of control

OC1CCSC1 (stereo unspecified)
inactive: [1] 95 % of control | [2] 95 % of control | dose: 200.0 mg/kg/injection, schedule: Q01DX009 (ip), vehicle: saline 98 % of control

C(=N/Sc1ccccc1)/c1ccccc1
inactive: [9] 98 % of control | [10] 98 % of control | [11] 112 % of control

N#CCc1ccc([N+](=O)[O-])cc1
inactive: dose: 12.5 mg/kg/injection, schedule: Q01DX009 (ip), vehicle: Klucel (hydroxypropylcellulose) (HPC) 102 % of control | dose: 12.5 mg/kg/injection, schedule: Q04DX003 (ip), vehicle: Klucel (hydroxypropylcellulose) (HPC) 98 % of control | [13] 106 % of control | [14] 106 % of control | [15] 98 % of control

Cc1cc(C)cc(OCC#CCN(C)c2ccccc2)c1
inactive: [9] 99 % of control | [10] 99 % of control | [11] 96 % of control

C=CCOc1ccccc1OCC=C
inactive: [16] 107 % of control | [17] 102 % of control | [18] 100 % of control

CC(=O)N(C)c1ccc(NC(=O)Nc2ccc([N+](=O)[O-])cc2Cl)cc1
inactive: [19] 96 % of control | [20] 95 % of control | dose: 400.0 mg/kg/injection, schedule: Q04DX003 (ip), vehicle: saline 88 % of control

Cn1c(NN)cc(=O)n(C)c1=O
inactive: dose: 75.0 mg/kg/injection, schedule: Q04DX003 (ip), vehicle: saline 107 % of control | dose: 150.0 mg/kg/injection, schedule: Q04DX003 (ip), vehicle: saline 94 % of control | dose: 300.0 mg/kg/injection, schedule: Q04DX003 (ip), vehicle: saline 104 % of control

Nc1nc(N)c(-c2ccc(Cl)cc2)c(/C=C/c2ccc([N+](=O)[O-])cc2)n1
inactive: dose: 50.0 mg/kg/injection, schedule: Q01DX001 (ip), vehicle: saline 104 % of control | dose: 100.0 mg/kg/injection, schedule: Q01DX001 (ip), vehicle: saline 93 % of control | dose: 200.0 mg/kg/injection, schedule: Q01DX001 (ip), vehicle: saline 93 % of control | dose: 400.0 mg/kg/injection, schedule: Q01DX001 (ip), vehicle: saline 96 % of control

Cc1cccc(NC(=O)NCCN(C)Cc2ccccc2)c1
inactive: dose: 50.0 mg/kg/injection, schedule: Q01DX001 (ip), vehicle: carboxymethylcellulose (CMC) 101 % of control | [16] 98 % of control | [17] 101 % of control | [18] 104 % of control

CC(C)CC(C)NCC(C)O (stereo unspecified)
inactive: dose: 75.0 mg/kg/injection, schedule: Q01DX001 (ip), vehicle: acid diluted with saline 100 % of control | dose: 150.0 mg/kg/injection, schedule: Q01DX001 (ip), vehicle: acid diluted with saline 100 % of control

CCOC(=O)NC(C)(C)CN(C(=O)OCC)C(C)(C)CO
inactive: [19] 104 % of control | [20] 104 % of control

CCCNC(=O)NS(=O)(=O)c1ccc(Cl)cc1
inactive: [3] 93 % of control | [4] 94 % of control | [5] 104 % of control

O=C(c1ccccc1)N1C(c2ccccc2)C1(c1ccccc1)C1(c2ccccc2)SCCCS1 (stereo unspecified)
inactive: [7] 94 % of control | [3] 108 % of control | [8] 101 % of control | [4] 100 % of control | dose: 400.0 mg/kg/injection, schedule: Q01DX009 (ip), vehicle: Klucel (hydroxypropylcellulose) (HPC) 91 % of control | [5] 97 % of control

NC1=NC(=O)C(c2ccccc2)O1 (stereo unspecified)
inactive: [13] 88 % of control | [14] 92 % of control | [6] 94 % of control | [15] 95 % of control | [7] 91 % of control | [3] 103 % of control | [8] 102 % of control | [4] 103 % of control | [5] 89 % of control

CC(C)(C)NC(=O)NCCCN1CCOCC1
inactive: dose: 100.0 mg/kg/injection, schedule: Q04DX002 (ip), vehicle: saline 96 % of control | dose: 200.0 mg/kg/injection, schedule: Q04DX002 (ip), vehicle: saline 90 % of control | dose: 400.0 mg/kg/injection, schedule: Q04DX002 (ip), vehicle: saline 96 % of control
